Key:
Set-up in all cases: purchased Milipore (Millipore)
[1] = target: T1, Human adrenergic α2B receptor (Homo sapiens, UniProt P18089); assay: Radioligand binding, adrenergic α2B (Protocol Group B); details: Protocol Group B; for Percentage inhibition of ligand binding, Adrenergic α2B (10 nM) / inhibition at 0.01 µM: 10 nM compound; for Percentage inhibition of ligand binding, Adrenergic α2B (10 nM): 0.01 µM; for Percentage inhibition of ligand binding, Adrenergic α2B (30 nM) / inhibition at 0.03 µM: 30 nM compound; for Percentage inhibition of ligand binding, Adrenergic α2B (30 nM): 0.03 µM; for Percentage inhibition of ligand binding, Adrenergic α2B (0.1 μM) / inhibition at 0.1 µM: 0.1 μM compound; for inhibition at 0.01 µM: read-out: Percentage inhibition of ligand binding, Adrenergic α2B (10 nM); for inhibition at 0.03 µM: read-out: Percentage inhibition of ligand binding, Adrenergic α2B (30 nM); for inhibition at 0.1 µM: read-out: Percentage inhibition of ligand binding, Adrenergic α2B (0.1 μM)
T1 sequence (P18089 1-450): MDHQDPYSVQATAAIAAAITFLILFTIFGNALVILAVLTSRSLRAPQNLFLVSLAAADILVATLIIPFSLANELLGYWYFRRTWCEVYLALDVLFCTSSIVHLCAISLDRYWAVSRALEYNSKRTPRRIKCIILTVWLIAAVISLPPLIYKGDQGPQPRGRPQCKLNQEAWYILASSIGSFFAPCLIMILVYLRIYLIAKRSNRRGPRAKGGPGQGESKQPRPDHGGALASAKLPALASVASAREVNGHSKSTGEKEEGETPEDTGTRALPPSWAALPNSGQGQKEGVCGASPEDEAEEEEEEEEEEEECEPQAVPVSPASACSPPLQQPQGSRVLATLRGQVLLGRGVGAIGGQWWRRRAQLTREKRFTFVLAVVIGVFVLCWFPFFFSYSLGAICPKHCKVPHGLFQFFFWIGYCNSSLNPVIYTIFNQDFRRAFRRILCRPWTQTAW
In short: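 Recombinant human α2B receptor membranes incubated with compounds in 50 mM Tris-HCl pH 7.4, 5 mM MgCl2, 1 mM CaCl2, 0.2% BSA, 1% DMSO vehicle. Non-specific binding defined with 10 μM rauwolscine. Values are percent inhibition of specific binding or estimated Ki.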

[2] = target: T2, Human adrenergic α1B receptor (Homo sapiens, UniProt P35368); assay: Radioligand binding, adrenergic α1B (Protocol Group B); details: Protocol Group B; for Percentage inhibition of ligand binding, Adrenergic α1B (0.1 μM) / inhibition at 0.1 µM: 0.1 μM compound; for Percentage inhibition of ligand binding, Adrenergic α1B (0.3 μM) / inhibition at 0.3 µM: 0.3 μM compound; for inhibition at 0.1 µM: read-out: Percentage inhibition of ligand binding, Adrenergic α1B (0.1 μM); for inhibition at 0.3 µM: read-out: Percentage inhibition of ligand binding, Adrenergic α1B (0.3 μM)
T2 sequence (P35368 1-520): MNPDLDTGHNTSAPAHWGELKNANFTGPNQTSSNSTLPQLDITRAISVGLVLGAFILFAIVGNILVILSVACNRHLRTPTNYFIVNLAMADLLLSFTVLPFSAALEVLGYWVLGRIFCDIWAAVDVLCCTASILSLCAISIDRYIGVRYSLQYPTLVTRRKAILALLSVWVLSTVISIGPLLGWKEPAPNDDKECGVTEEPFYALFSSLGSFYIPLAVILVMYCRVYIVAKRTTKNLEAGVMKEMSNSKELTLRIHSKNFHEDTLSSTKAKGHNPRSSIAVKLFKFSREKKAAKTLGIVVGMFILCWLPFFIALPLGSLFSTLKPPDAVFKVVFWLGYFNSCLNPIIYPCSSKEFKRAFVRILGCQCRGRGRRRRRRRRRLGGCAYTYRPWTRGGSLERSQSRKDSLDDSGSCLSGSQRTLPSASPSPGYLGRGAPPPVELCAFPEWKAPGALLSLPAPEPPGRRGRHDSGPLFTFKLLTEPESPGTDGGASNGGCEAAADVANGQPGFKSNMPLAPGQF
In short: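 Recombinant human α1B membranes incubated with test compound and 0.3 nM [3H]prazosin, 60 min at 25 °C, in 50 mM Tris-HCl pH 7.4, 10 mM MgCl2, 1 mM EDTA; nonspecific binding with 10 μM prazosin. Filter-bound radioactivity counted; values are % inhibition of specific binding or estimated Ki.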

[3] = target: T3, Human adrenergic α2A receptor (Homo sapiens, UniProt P08913); assay: Radioligand binding, adrenergic α2A (Protocol Group B); details: Protocol Group B; for Percentage inhibition of ligand binding, Adrenergic α2A (0.1 μM) / inhibition at 0.1 µM: 0.1 μM compound; for Percentage inhibition of ligand binding, Adrenergic α2A (0.3 μM) / inhibition at 0.3 µM: 0.3 μM compound; for inhibition at 0.1 µM: read-out: Percentage inhibition of ligand binding, Adrenergic α2A (0.1 μM); for inhibition at 0.3 µM: read-out: Percentage inhibition of ligand binding, Adrenergic α2A (0.3 μM)
T3 sequence (P08913 1-465): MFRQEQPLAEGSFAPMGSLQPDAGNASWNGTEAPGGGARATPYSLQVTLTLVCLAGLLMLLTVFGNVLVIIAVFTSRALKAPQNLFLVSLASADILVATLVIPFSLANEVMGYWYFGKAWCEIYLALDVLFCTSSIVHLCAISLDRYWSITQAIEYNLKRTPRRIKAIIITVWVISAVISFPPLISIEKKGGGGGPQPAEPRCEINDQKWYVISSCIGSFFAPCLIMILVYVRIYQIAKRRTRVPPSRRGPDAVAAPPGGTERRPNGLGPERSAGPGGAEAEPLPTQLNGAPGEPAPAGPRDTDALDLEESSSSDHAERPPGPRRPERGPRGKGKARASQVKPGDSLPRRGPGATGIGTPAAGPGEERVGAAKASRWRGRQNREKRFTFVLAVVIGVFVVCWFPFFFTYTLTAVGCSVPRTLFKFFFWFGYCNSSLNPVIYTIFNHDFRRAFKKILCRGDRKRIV
In short: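 Membranes from recombinant cells expressing the receptor, in 50 mM Tris-HCl pH 7.4 with 5 mM MgCl2, 1 mM CaCl2, 0.2% BSA; compounds incubated with 2 nM [^3H]MK-912 for 60 min at 25° C. Nonspecific binding defined by 10 μM rauwolscine; filtration, counting; percent inhibition of specific binding, or estimated Ki.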

Row | Structure (SMILES) | Percentage inhibition of ligand binding, Adrenergic α2B (10 nM) [1] [%] | Percentage inhibition of ligand binding, Adrenergic α2B (30 nM) [1] [%] | Percentage inhibition of ligand binding, Adrenergic α2B (0.1 μM) [1] [%] | Percentage inhibition of ligand binding, Adrenergic α1B (0.1 μM) [2] [%] | Percentage inhibition of ligand binding, Adrenergic α1B (0.3 μM) [2] [%] | Percentage inhibition of ligand binding, Adrenergic α2A (0.1 μM) [3] [%] | Percentage inhibition of ligand binding, Adrenergic α2A (0.3 μM) [3] [%] | inhibition at 0.01 µM [1] [%] | inhibition at 0.03 µM [1] [%] | inhibition at 0.1 µM [1] [%] | inhibition at 0.1 µM [2] [%] | inhibition at 0.3 µM [2] [%] | inhibition at 0.1 µM [3] [%] | inhibition at 0.3 µM [3] [%]
1 | Cc1ccc2c(c1)c1c(n2CC(C)(O)c2cccnc2)CC2CCCN2C1 (stereo not shown) [41c] | −8 | −10 | 0 | 1 | −5 | −12 | 1 | – | – | – | – | – | – | –
2 | Cc1ccc2c(c1)c1c(n2CC(C)(O)c2cccnc2)CC2CCCN2C1 (stereo not shown) [41d] | 9 | 21 | 48 | −2 | −1 | −7 | 13 | – | – | – | – | – | – | –
3 | CC(O)(Cn1c2c(c3cc(F)ccc31)C1CCCN1CC2)c1cccnc1 (stereo not shown) [51a] | 79 | 93 | 97 | −6 | 19 | 16 | 39 | – | – | – | – | – | – | –
4 | CC(O)(Cn1c2c(c3cc(F)ccc31)C1CCCN1CC2)c1cccnc1 (stereo not shown) [51b] | 45 | 69 | 86 | −8 | 4 | 13 | 34 | – | – | – | – | – | – | –
5 | CC(O)(Cn1c2c(c3cc(F)ccc31)C1CCCN1CC2)c1cccnc1 (stereo not shown) [57a] | −7 | 0 | 14 | −4 | −4 | −12 | −11 | – | – | – | – | – | – | –
6 | CC(O)(Cn1c2c(c3cc(F)ccc31)C1CCCN1CC2)c1cccnc1 (stereo not shown) [57b] | −7 | −4 | 8 | −10 | −7 | −6 | −7 | – | – | – | – | – | – | –
7 | Cc1ccc2c(c1)c1c(n2CC(OCC2CCC2)c2ccncc2)CCN(C)C1 (stereo not shown) [59b] | – | – | – | – | – | – | – | 84 | 97 | 99 | 28 | 62 | 39 | 65
8 | Cc1cc(F)cc2c3c(n(CC(C)(O)c4cccnc4)c12)CCN1CCCC31 (stereo not shown) [75b] | – | – | – | – | – | – | – | -10 | -4 | -1 | -1 | 1 | -3 | 5
9 | CC(O)(Cn1c2c(c3cc(C(F)(F)F)ccc31)CN1CCCC1C2)c1cccnc1 (stereo not shown) [85b] | – | – | – | – | – | – | – | -7 | -5 | – | -12 | -3 | -14 | -17
10 | Cc1cc(C)c2c(c1)c1c(n2CC(O)C2CCCCC2)CCN2CCCC12 (stereo not shown) [141a] | – | – | – | – | – | – | – | – | 93 | – | 55 | – | 85 | –
11 | Cc1cc(C)c2c(c1)c1c(n2CC(O)C2CCCCC2)CCN2CCCC12 (stereo not shown) [141b] | – | 92 | – | 57 | – | 81 | – | – | – | – | – | – | – | –
12 | CN1CCc2c(c3c(Cl)ccc(Cl)c3n2CC(O)c2cccnc2)C1 (stereo not shown) [Compound No. 17, 2-(6,9-dichloro-2-methyl-3,4-dihydro-1H-pyrido[4,3-b]indol-5 (2H)-yl)-1-(pyridin-3-yl)ethanol] | – | – | – | – | – | – | – | 4 | -12 | -13 | 10 | 11 | 10 | 15
13 | Cc1ccc2c(c1)c1c(n2CC(O)c2ccncc2F)CCN2CCCC12 (stereo not shown) [compound 14, 1-(3-fluoropyridin-4-yl)-2-(10-methyl-2,3,5,6-tetrahydro-1H-indolizino[7,8-b]indol-7 (11cH)-yl)ethanol] | – | – | – | – | – | – | – | 81 | 99 | 101 | 74 | 90 | 71 | 87

Reference: patent US20150315188A1, “COMPOUNDS AND METHODS FOR TREATMENT OF HYPERTENSION” (MEDIVATION TECHNOLOGIES, INC., priority 2012, published 2015)
